These results are taken from US10106538B2, “Inhibitors of protein kinases” (PRINCETON DRUG DISCOVERY INC, priority 2015, dated 2018).

Holding throughout (experiment): Off-chip Mobility Shift Assay (MSA) kinase inhibition
Holding throughout (format): biochemical

Assay [1] addresses T1, HER2 (Homo sapiens, UniProt P04626).
T1 construct: purchased Carna Biosciences
The following applies: for inhibition at 0.1 µM: inhibitor concentration 0.1 μM. An outline of the steps:
(§1)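 Inhibition was determined by mobility shift detection after kinase, compound and substrate/ATP/metal were incubated together at room temperature for 1 or 5 hour(s), in pH 7.5 buffer of 20 mM HEPES with 0.01% Triton X100 and 2 mM DTT.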

The target of assay [2] is T2, JAK1 (Homo sapiens, UniProt P23458).
T2 construct: purchased Carna Biosciences
The note with it: for inhibition at 0.1 µM: inhibitor concentration 0.1 μM. The gist of the method:
as §1

Assay [3] addresses T3, KDR (Homo sapiens, UniProt P35968).
T3 construct: purchased Carna Biosciences
The note with it: for inhibition at 0.1 µM: inhibitor concentration 0.1 μM. The gist of the method: as §1

For assay [4], the target named is T4, BRAF(V600E) (Homo sapiens, UniProt P15056, V600E).
T4 construct: purchased Carna Biosciences
An outline of the steps: as §1

Assay [5] has as its target T5, KIT(T670I) (Homo sapiens, UniProt P10721, T670I).
T5 construct: purchased Carna Biosciences
The note with it: for inhibition at 0.1 µM: inhibitor concentration 0.1 μM. The gist of the method:
as §1

Assay [6] deals with T6, RET (Homo sapiens, UniProt P07949).
T6 construct: purchased Carna Biosciences
The note with it: for inhibition at 0.1 µM: inhibitor concentration 0.1 μM. The gist of the method:
as §1

Assay [7] deals with T7, FGFR3 (Homo sapiens, UniProt P22607).
T7 construct: purchased Carna Biosciences
The note with it: for inhibition at 0.1 µM: inhibitor concentration 0.1 μM. The gist of the method: as §1

The target of assay [8] is T8, RAF1 (Homo sapiens, UniProt P04049).
T8 construct: purchased Carna Biosciences
The note with it: for inhibition at 0.1 µM: inhibitor concentration 0.1 μM. The gist of the method: as §1

The target of assay [9] is T9, MAP2K4 (Homo sapiens, UniProt P45985).
T9 construct: purchased Carna Biosciences
The following applies: inhibitor concentration 1 μM. Here is the method:
(§2) Off-chip Mobility Shift Assay (MSA) by Cama Biosciences, Inc (Natick, Mass.) a used for measuring the kinase activity and inhibition. • 1) The 5 μL of x4 compound solution, 5 μL of x4 Substrate/ATP/Metal solution, and 10 μL of x2 kinase solution were prepared with assay buffer (20 mM HEPES, 0.01% Triton X100, 2 mM DTT, pH 7.5) and mixed and incubated in a well of polypropylene 384 well microplate for 1 or 5 hour(s)* at room temperature. (*; depending on kinase) • 2) 70 μL of Termination Buffer (QuickScout Screening Assist A; Cama Biosciences) was added to the welt • 3) The reaction mixture was applied to LabChip system (Perkin Elmer), and the product and substrate peptide peaks were separated and quantitated. • 4) The kinase reaction was evaluated by the product ratio calculated from peak heights of product (P) and substrate (S) peptides (P/(P+S)). • 5) The reaction conditions were followed according to assay protocols of Ca n Biosciences, Inc (BMA 3F, 1-5-5 Minatojima-Minamimachi, Chuo-ku, Kobe 650-0047, Japan; www.carnabio.com). • 6 Data analysis: The readout value of reaction control (complete reaction mixture) was set as a 0% inhibition, and the readout value of background (Enzyme (−)) was set as a 100% inhibition, then the percent inhibition of each test solution was calculated, […]

Assay [10] concerns the target T10, EPHA5 (Homo sapiens, UniProt P54756).
T10 construct: purchased Carna Biosciences
The note with it: inhibitor concentration 1 μM. Here is the method:
as §2

Assay [11] addresses T11, MAP2K7 (Homo sapiens, UniProt O14733).
T11 construct: purchased Carna Biosciences
The following applies: inhibitor concentration 1 μM. Here is the method:
as §2

Assay [12] has as its target T12, YES(T348I) (Homo sapiens, UniProt P07947, T348I).
T12 construct: purchased Carna Biosciences
The note with it: inhibitor concentration 1 μM. How it is done:
as §2

In assay [13] the target is T13, FRK (Homo sapiens, UniProt P42685).
T13 construct: purchased Carna Biosciences
The note with it: inhibitor concentration 1 μM. Here is the method:
as §2

For assay [14], the target named is T14, FLT1 (Homo sapiens, UniProt P17948).
T14 construct: purchased Carna Biosciences
The note with it: inhibitor concentration 1 μM. How it is done: as §2

In assay [15] the target is T15, CSK (Homo sapiens, UniProt P41240).
T15 construct: purchased Carna Biosciences
Here is the method:
as §2

Assay [16] addresses T16, ROCK2 (Homo sapiens, UniProt O75116).
T16 construct: purchased Carna Biosciences
The note with it: inhibitor concentration 1 μM. Here is the method:
as §2

The target of assay [17] is T17, PKD2 (Homo sapiens, UniProt Q9BZL6).
T17 construct: purchased Carna Biosciences
The following applies: inhibitor concentration 1 μM. Here is the method: as §2

Assay [18] addresses T18, WNK3 (Homo sapiens, UniProt Q9BYP7).
T18 construct: purchased Carna Biosciences
The note with it: inhibitor concentration 1 μM. Here is the method: as §2

Assay [19] has as its target T19, PDGFRα(T674I) (Homo sapiens, UniProt P16234, T674I).
T19 construct: purchased Carna Biosciences
Here is the method:
as §2

Assay [20] deals with T20, PDGFRα(V561D) (Homo sapiens, UniProt P16234, V561D).
T20 construct: purchased Carna Biosciences
Here is the method:
as §2

Assay [21] has as its target T21, ACK (Homo sapiens, UniProt Q07912).
T21 construct: purchased Carna Biosciences
Here is the method: as §2

In assay [22] the target is T22, PDGFRα(D842V) (Homo sapiens, UniProt P16234, D842V).
T22 construct: purchased Carna Biosciences
How it is done:
as §2

The target of assay [23] is T23, FYN(isoform a) (Homo sapiens, UniProt P06241).
T23 construct: purchased Carna Biosciences
Here is the method: as §2

Assay [24] concerns the target T24, MST4 (Homo sapiens, UniProt Q9P289).
T24 construct: purchased Carna Biosciences
The following applies: inhibitor concentration 1 μM. Here is the method:
as §2

The target in assay [25] is T25, FGFR1 (Homo sapiens, UniProt P11362).
T25 construct: purchased Carna Biosciences
The following applies: inhibitor concentration 1 μM. Here is the method: as §2

The target in assay [26] is T26, PKD3 (Homo sapiens, UniProt O94806).
T26 construct: purchased Carna Biosciences
The note with it: inhibitor concentration 1 μM. How it is done: as §2

The target of assay [27] is T27, MAP2K6 (Homo sapiens, UniProt P52564).
T27 construct: purchased Carna Biosciences
The note with it: inhibitor concentration 1 μM. Here is the method: as §2

For assay [28], the target named is T28, AKT2 (Homo sapiens, UniProt P31751).
T28 construct: purchased Carna Biosciences
The note with it: inhibitor concentration 0.1 μM. An outline of the steps: as §1

Assay [29] concerns the target T29, AurB (Homo sapiens, UniProt Q96GD4).
T29 construct: purchased Carna Biosciences, Inc
The following applies: inhibitor concentration 0.1 μM. The gist of the method: as §1

[30] abbreviates: inhibitor concentration 0.01 μM.
The mark [31] stands for this setting: inhibitor concentration 0.01 μM, 0.01 µM.

T3 sequence (P35968 20-1356): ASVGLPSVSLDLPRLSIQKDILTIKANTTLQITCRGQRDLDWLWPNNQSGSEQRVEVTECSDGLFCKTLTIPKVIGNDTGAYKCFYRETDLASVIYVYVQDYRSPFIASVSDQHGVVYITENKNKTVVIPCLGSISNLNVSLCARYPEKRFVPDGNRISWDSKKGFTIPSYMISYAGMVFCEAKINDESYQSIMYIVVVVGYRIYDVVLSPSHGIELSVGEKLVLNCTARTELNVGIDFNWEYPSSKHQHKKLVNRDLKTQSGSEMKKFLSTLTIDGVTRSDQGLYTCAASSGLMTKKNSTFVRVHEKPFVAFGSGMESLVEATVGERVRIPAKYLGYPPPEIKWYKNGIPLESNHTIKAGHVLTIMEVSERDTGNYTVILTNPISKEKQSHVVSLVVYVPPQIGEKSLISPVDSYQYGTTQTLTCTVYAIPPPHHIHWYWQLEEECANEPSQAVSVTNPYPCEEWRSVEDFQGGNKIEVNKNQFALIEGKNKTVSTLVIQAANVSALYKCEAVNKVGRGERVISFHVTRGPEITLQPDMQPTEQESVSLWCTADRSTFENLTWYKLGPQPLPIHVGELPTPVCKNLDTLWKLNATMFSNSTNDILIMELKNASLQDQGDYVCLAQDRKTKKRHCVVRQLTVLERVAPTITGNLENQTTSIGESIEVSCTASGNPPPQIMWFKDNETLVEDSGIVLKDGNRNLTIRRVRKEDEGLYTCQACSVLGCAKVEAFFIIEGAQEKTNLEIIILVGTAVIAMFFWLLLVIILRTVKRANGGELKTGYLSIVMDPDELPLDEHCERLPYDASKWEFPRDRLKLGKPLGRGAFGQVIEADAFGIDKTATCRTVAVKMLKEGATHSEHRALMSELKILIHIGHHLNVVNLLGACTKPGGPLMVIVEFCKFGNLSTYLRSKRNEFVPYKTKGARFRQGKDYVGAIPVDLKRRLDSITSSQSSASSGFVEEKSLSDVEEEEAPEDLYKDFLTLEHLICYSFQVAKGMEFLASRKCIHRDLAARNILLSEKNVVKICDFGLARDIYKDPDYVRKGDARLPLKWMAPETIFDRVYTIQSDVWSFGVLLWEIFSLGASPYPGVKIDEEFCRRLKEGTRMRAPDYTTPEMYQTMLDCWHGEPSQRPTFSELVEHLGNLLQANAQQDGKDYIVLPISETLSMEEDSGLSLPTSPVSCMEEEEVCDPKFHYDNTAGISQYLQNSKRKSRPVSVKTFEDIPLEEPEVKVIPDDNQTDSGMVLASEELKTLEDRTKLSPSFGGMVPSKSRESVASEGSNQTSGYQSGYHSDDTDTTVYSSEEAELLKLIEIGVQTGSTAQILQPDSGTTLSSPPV
T2 sequence (P23458 whole entry): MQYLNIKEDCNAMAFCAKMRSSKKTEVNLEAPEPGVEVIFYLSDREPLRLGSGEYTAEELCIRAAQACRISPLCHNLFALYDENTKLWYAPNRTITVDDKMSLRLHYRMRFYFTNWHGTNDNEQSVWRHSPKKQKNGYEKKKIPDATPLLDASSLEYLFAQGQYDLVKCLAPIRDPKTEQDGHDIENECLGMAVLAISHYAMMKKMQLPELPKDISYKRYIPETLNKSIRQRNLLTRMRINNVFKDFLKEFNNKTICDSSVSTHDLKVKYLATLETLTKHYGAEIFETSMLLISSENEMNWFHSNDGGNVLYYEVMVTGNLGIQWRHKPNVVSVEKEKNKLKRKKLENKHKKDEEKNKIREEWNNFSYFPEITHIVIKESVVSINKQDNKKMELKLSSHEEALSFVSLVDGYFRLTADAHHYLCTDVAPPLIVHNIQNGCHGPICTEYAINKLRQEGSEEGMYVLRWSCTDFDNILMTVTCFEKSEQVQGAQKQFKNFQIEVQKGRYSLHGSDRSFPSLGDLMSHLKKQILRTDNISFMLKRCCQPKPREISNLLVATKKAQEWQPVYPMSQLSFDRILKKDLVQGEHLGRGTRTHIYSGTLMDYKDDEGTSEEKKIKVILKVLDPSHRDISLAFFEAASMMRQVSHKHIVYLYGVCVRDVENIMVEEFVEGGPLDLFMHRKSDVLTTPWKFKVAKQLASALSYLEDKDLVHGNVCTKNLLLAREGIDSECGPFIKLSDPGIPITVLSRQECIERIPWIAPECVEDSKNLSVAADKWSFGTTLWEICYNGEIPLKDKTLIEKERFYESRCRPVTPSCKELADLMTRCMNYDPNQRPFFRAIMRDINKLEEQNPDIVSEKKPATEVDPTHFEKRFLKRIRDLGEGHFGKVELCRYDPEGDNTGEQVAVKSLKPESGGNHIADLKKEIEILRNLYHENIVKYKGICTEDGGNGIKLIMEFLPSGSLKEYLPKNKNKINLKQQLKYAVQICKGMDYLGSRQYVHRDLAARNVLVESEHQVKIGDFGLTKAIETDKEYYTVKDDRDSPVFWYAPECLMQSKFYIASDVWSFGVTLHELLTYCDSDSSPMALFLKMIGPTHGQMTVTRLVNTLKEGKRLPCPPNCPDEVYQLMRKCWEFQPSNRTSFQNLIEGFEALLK
T23 sequence (P06241 whole entry, canonical isoform): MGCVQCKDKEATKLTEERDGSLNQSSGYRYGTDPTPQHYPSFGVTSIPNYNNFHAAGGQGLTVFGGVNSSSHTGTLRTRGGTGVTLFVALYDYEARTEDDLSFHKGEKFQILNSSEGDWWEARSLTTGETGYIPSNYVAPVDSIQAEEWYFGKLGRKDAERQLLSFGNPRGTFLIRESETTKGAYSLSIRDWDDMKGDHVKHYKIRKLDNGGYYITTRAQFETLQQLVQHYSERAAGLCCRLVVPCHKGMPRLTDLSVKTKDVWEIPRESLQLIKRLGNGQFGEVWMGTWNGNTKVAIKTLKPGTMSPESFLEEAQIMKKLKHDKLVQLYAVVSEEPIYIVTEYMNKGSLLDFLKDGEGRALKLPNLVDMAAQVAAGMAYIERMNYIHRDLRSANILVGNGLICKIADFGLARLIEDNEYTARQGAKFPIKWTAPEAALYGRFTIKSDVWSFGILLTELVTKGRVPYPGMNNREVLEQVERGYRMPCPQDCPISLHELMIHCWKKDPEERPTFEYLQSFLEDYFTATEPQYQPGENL
T6 sequence (P07949 29-1114): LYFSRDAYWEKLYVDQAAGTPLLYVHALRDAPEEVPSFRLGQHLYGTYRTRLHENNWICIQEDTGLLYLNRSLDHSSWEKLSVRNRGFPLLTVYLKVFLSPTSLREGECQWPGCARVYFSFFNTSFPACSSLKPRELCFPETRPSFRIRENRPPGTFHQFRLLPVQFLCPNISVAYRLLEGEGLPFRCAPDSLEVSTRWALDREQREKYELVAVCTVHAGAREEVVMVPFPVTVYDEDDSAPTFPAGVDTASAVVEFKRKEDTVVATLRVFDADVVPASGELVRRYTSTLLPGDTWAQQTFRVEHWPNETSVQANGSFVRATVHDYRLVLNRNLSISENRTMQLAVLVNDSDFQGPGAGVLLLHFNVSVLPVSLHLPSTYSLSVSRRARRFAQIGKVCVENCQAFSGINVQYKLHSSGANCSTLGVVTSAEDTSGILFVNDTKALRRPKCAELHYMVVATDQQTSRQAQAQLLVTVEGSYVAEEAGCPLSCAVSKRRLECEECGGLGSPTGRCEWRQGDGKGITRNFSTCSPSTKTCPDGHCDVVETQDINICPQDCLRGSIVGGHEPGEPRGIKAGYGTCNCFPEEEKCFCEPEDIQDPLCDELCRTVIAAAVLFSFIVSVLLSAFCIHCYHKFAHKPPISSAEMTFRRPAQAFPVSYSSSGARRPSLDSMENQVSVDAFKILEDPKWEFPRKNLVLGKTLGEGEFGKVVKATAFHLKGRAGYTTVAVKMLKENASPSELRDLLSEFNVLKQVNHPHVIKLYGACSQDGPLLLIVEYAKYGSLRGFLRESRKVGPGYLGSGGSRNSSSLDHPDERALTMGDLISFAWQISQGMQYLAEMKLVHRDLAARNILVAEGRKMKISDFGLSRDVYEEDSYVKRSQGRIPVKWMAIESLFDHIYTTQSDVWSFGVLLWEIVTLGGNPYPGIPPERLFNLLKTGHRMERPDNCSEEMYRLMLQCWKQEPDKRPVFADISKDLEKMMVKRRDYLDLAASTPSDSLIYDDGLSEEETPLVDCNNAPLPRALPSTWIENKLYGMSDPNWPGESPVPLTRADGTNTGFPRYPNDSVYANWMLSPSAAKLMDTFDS
T29 sequence (Q96GD4 whole entry): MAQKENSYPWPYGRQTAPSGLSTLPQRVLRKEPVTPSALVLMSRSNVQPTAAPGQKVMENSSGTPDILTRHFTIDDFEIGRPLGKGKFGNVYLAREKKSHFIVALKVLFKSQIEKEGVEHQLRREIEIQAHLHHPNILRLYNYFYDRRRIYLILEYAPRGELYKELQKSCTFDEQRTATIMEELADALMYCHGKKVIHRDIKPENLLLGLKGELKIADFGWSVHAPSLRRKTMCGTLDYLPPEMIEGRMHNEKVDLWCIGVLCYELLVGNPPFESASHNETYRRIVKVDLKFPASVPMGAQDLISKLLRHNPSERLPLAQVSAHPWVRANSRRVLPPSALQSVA
T29 sequence (Q9NQS7 803-918 partner limits assumed): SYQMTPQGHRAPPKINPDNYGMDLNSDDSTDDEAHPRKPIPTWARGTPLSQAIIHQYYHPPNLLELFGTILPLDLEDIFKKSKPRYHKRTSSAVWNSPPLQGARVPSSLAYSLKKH
T15 sequence (P41240 whole entry): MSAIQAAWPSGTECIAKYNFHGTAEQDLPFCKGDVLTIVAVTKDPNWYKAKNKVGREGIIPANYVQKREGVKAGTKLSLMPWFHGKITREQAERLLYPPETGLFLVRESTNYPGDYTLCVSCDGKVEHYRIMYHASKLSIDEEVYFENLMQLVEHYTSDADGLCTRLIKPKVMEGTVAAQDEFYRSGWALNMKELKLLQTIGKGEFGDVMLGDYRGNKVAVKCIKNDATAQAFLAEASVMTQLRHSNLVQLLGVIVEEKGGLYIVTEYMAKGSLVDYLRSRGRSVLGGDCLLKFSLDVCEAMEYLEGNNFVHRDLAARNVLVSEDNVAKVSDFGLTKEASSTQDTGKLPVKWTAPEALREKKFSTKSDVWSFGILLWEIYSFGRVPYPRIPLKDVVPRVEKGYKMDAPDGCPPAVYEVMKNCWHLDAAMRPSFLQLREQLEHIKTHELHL

By inhibition is commonly meant the drop in the measured response relative to a control, in per cent. For `O=C(c1c(F)ccc(NS(=O)(=O)CCCO)c1F)c1c[nH]c2ncc(-c3ccc(Cl)cc3)cc12` [200-17, N-[3-[5-(4-chlorophenyl)-1H-pyrrolo[2,3-b]pyridine-3-carbonyl]-2,4-difluorophenyl]-3-hydroxypropane-1-sulfonamide], the inhibition at 1 µM in assay [1] (inhibitor concentration 1 μM) was less than 50%; in [2] (inhibitor concentration 1 μM) it was more than 50%; in [3] (inhibitor concentration 1 μM), more than 50%; in assay [4] (inhibitor concentration 1 μM), more than 50%; in [5] (inhibitor concentration 1 μM) it was less than 50%; in assay [6] (inhibitor concentration 1 μM), more than 50%. Besides, the inhibition at 1 µM is more than 50% in assay [7] (inhibitor concentration 1 μM); more than 50% in assay [8] (inhibitor concentration 1 μM); less than 50% in [9]; less than 50% in assay [10]; less than 50% in [11]; more than 50% in assay [12]. The inhibition at 1 µM is more than 50% in [13]; more than 50% in [14]; more than 50% in assay [15] (inhibitor concentration 1 μM); less than 50% in assay [16]; less than 50% in [17]; more than 50% in [18]. In addition, the inhibition at 1 µM is less than 50% in assay [19] (inhibitor concentration 1 μM); more than 50% in [20] (inhibitor concentration 1 μM); more than 50% in [21] (inhibitor concentration 1 μM); more than 50% in assay [22] (inhibitor concentration 1 μM); more than 50% in [23] (inhibitor concentration 1 μM); less than 50% in assay [24]. For the same compound, the values for the inhibition at 1 µM in assay [25], in [26] and in assay [27] were more than 50%, less than 50% and less than 50%, respectively. In addition, the inhibition at 0.01 µM is more than 30% in assay [2] (setting [30]); less than 30% in assay [3] (setting [30]); less than 30% in [6] (setting [30]); less than 30% in assay [15] (setting [30]); less than 30% in assay [20] (setting [30]); less than 30% in [21] (setting [30]). The inhibition at 0.01 µM in [23] (setting [30]) is less than 30%. In addition, the inhibition at 0.1 µM in assay [2] is more than 50%; in assay [3] it was more than 50%; in assay [6], less than 50%; in assay [15] (inhibitor concentration 0.1 μM) it was more than 50%; in [20] (inhibitor concentration 0.1 μM), more than 50%; in [21] (inhibitor concentration 0.1 μM) it was less than 50%. In [23] (inhibitor concentration 0.1 μM), the inhibition at 0.1 µM is less than 50%.

Consider `O=C(c1c(F)ccc(NS(=O)(=O)CC(O)CO)c1F)c1c[nH]c2ncc(-c3ccc(Cl)cc3)cc12` (stereo not drawn) [200-73, N-[3-[5-(4-chlorophenyl)-lH-pyrrolo [2,3-b]pyridine-3-carbonyl]-2,4-difluorophenyl]-2,3-dihydroxypropane-l-sulfonamide], for which the inhibition at 0.1 µM in [28] was less than 30%; in assay [1], less than 30%; in [2] it was more than 30%; in assay [29], less than 30%; in assay [3] it was less than 30%; in assay [4] (inhibitor concentration 0.1 μM) it was less than 30%. Further, the inhibition at 0.1 µM in assay [5] is less than 30%; in assay [6], less than 30%; in assay [7], less than 30%; in assay [8] it was more than 30%.

With `C/C=C/S(=O)(=O)Nc1ccc(F)c(C(=O)c2c[nH]c3ncc(-c4ccc(Cl)cc4)cc23)c1F` [200-93b], the JAK1 inhibition in assay [2] (setting [31]) was less than 20%. Further, the “BRAF(V600E) inhibition” value in assay [4] (setting [31]) is less than 20%. In assay [5] (setting [31]), the “KIT(T670I) inhibition” value is reported as less than 20%. Besides, in assay [8] (setting [31]), the RAF1 inhibition is more than 20%. Besides, in [19] (setting [31]), the “PDGFRα(T674I) inhibition” value is given as less than 20%. Further, the “PDGFRα(V561D) inhibition” value in assay [20] (setting [31]) is reported as less than 20%. Also, the “PDGFRα(D842V) inhibition” value in assay [22] (setting [31]) was less than 20%.

Consider `CC(O)CS(=O)(=O)Nc1ccc(F)c(C(=O)c2c[nH]c3ncc(-c4ccc(Cl)cc4)cc23)c1F` (stereo not shown) [200-115], for which the inhibition at 0.1 µM in [28], in assay [1], in [2], in assay [29], in [3] and in assay [5] was less than 30% in each case. Also, the inhibition at 0.1 µM is less than 30% in assay [6], less than 30% in [7] and more than 30% in assay [8].

`CC(=O)CS(=O)(=O)Nc1ccc(F)c(C(=O)c2c[nH]c3ncc(-c4ccc(Cl)cc4)cc23)c1F` [200-117]: the inhibition at 0.1 µM in assay [28], in assay [1], in assay [2], in assay [29], in [3] and in [5] was less than 30% in each case. The results for the inhibition at 0.1 µM in [6], in assay [7] and in [8] were less than 30%, less than 30% and more than 30%, respectively.
